{"source": "paper PMC9037311", "about": "(RSC Advances, 2021)", "assay": "Pharmacokinetic study after oral administration to rats", "format": "in vivo, Sprague-Dawley male rats"}
{"smiles": "O=C([O-])Cc1ccccc1Nc1c(Cl)cccc1Cl.[K+]", "note": "[DCFP, Diclofenac potassium]", "values": [{"measurement": "AUC(0–t)", "setting": "25 mg kg^−1", "result": "53.99 ± 3.18", "unit": "mg/L/h"}, {"measurement": "AUC(0–∞)", "setting": "25 mg kg^−1", "result": "59.22 ± 5.23", "unit": "mg/L/h"}, {"measurement": "Cmax", "setting": "25 mg kg^−1", "result": "15520 ± 1050", "unit": "ng/mL"}, {"measurement": "blood drug concentration", "setting": "at 10 h", "result": "nearly undetectable"}, {"measurement": "blood drug concentration", "setting": "within 1 h", "result": "not detectable"}]}
